According to US20230067910A1, “NOVEL COMPOUNDS FOR THE DIAGNOSIS, TREATMENT AND PREVENTION OF DISEASES ASSOCIATED WITH THE AGGREGATION OF ALPHA-SYNUCLEIN” (MODAG GMBH, priority 2019, published 2023):
Where “and” joins values, the source holds several entries; their conditions need not be identical. Equal values may be shown once. Read-outs that look alike come from different tables or passages of the source.

Experiments:
[1] = molecular target: T1, alpha-synuclein (sonicated fibrils) (Homo sapiens, UniProt P37840); assay: Modified competition binding assay, protocol 3b, reference ligand [3H]-compound 2; details: Table 5, reference ligand [3H]-compound 2 (1 nM)
T1 construct: made in house; host or cells: E. coli
In short: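 Sonicated recombinant human αSYN fibrils (15 nM/well) incubated with 1 nM [3H]-compound 2 and serially diluted unlabeled competitor in 30 mM Tris-HCl, 10% ethanol, 0.05% Tween20, pH 7.4, 4.5 h at RT. Filtration readout; IC50 by non-linear regression, Ki calculated using KD 0.2 nM.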

aggregated Abeta = molecular target: T2, aggregated Abeta (Homo sapiens, UniProt P05067); assay: Saturation binding assay, protocol 2a, Abeta fibrils; details: saturation assay protocol 2a, [3H]-labeled compound
T2 construct: Aβ1-42 was obtained from rPeptide; purchased rPeptide, Watkinsville, Ga., USA
T2 sequence (P05067 672-713 limits assumed): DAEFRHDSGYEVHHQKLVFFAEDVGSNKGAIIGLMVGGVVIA
Description: (§1) Alpha-synuclein and tau46 were purified from E. coli according to established protocols (Nuscher B, et al., J. Biol. Chem., 2004; 279(21):21966-75), Aβ1-42 was obtained from rPeptide, Watkinsville, Ga., USA. Fibrils were prepared by aggregation of recombinant protein via constant agitation. In detail, 70 μM of alpha-synuclein mixed with 100 mM NaCl in 50 mM Tris, pH 7.0+0.02% NaN3 were incubated at 1,400 rpm, 37° C. for 96 h. 10 μM of tau46 were incubated with 0.03 mg/ml heparin in 50 mM Tris, pH=7.0 at 1,000 rpm, 37° C. for 72 h. Aβ1-42 was solved in 20 mM NaPi, pH=8.0+0.2 mM EDTA+0.02% NaN3 (Deeg A A, et al., Biochim. Biophys. Acta, 2015; 1850(9): 1884-90; Goedert M, et al. Nature, 1996; 383(6600): 550-3).
(§2) Sonicated αSYN (0.04 μM) or tau46 (0.4 μM) or Aβ1-42 (6 μM) fibrils diluted in PBS were incubated with decreasing concentrations of [^3H]-labeled compound (48 nM or 24 nM-[…]) in 50 mM Tris-base, 10% ethanol, 0.05% Tween20, pH 7.4. […]
(§3) Assay plates were incubated under agitation at 37° C. for 2 h, covered by plastic foil (Resealable tape, PerkinElmer, Waltham, Mass., USA). […] Accumulation of tritium was counted in a liquid scintillation counter (Wallac MicroBeta® TriLux, 1450 LSC & Luminescence Counter, PerkinElmer, Waltham, Mass., USA) immediately. Radioactivity was plotted against the increasing tritium-labeled compound or cold compound concentrations. […]

aggregated tau46 = molecular target: T3, aggregated tau46 (Homo sapiens, UniProt P10636); assay: Saturation binding assay, protocol 2a, tau46 fibrils; details: saturation assay protocol 2a, [3H]-labeled compound
T3 construct: made in house; host or cells: E. coli
T3 sequence (P10636 1-412 isoform P10636-7): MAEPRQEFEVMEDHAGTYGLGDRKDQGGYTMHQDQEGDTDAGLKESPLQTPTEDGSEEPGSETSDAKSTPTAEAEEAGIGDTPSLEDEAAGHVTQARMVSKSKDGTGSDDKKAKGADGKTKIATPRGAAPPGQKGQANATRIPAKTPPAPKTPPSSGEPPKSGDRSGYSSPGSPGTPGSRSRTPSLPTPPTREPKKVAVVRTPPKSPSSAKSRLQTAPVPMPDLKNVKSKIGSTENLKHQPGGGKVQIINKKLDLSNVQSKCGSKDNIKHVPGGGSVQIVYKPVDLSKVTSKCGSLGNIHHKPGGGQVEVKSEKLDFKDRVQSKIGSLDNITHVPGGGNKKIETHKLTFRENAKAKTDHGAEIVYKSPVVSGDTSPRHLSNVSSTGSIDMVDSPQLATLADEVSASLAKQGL
Description: as §1, §2, §3

[2] = molecular target: T4, alpha-synuclein (fibrils) (Homo sapiens, UniProt P37840); assay: Competition binding assay, protocol 3a, reference ligand [3H]-compound 1, alpha-synuclein fibrils; details: reference ligand [3H]-compound 1 (1 nM)
T4 construct: made in house; host or cells: E. coli
Description: as §1
A fixed concentration of sonicated human recombinant αSYN (200 nM/well) or tau46 (208 nM/well) fibrils diluted in phosphate buffered saline (PBS) were incubated in low binding plates (96 well micro test plate, Ratiolab GmbH, Dreieich, Germany) together with 1 nM [^3H]-compound 1 and 1:4 serial dilutions of the cold compound of interest starting from 1 μM diluted in 50 mM Tris-base, 10% EtOH, 0.05% Tween20, pH 7.4. For the calculation of Ki values the KD value of compound 1 toward sonicated human recombinant αSYN fibrils was set to 3 nM.
Assay plates were incubated under agitation at 37° C. for 2 h covered by plastic foil (Resealable tape, PerkinElmer, Waltham, Mass., USA). Prior to harvesting, a filter (Printed filtermat B, PerkinElmer, Waltham, Mass., USA) was incubated with 5 mg/mL polyethylenimine (PEI, Poly(ethyleneimine) solution, Sigma Aldrich Chemie GmbH, Taufkirchen, Germany) at 4° C. for 30 min. After incubation, bound and free ligands were separated by vacuum filtration using a harvester (Filtermate harvester, PerkinElmer, Waltham, Mass., USA). The filter was washed three times with buffer cooled to 4° C. and subsequently dried in the microwave for 2 min at medium power. The filter was sealed in a plastic bag (Sample bag for MicroBeta®, PerkinElmer, Waltham, Mass., USA) together with added scintillator (BETAPLATE SCINT, PerkinElmer, Waltham, Mass., USA). Accumulation of tritium was counted in a liquid scintillation counter (Wallac MicroBeta® TriLux, 1450 LSC & Luminescence Counter, PerkinElmer, Waltham, Mass., USA) immediately. Radioactivity was plotted against the increasing tritium-labeled compound or cold compound concentrations. Data points were fitted using nonlinear regression analysis in GraphPad Prism (GraphPad Software, Inc., Version 7.03, La Jolla, Calif., USA).
The fibril competition assay provides Ki values. Ki is a quantitative measure that represents the concentration of the non-radioactive tested compound (competitor ligand) required to replace 50% of a reference compound, in this case [H]-compound 1 (1 nM) or [H]-compound 2 (1 nM), which is bound to the target structures (1 nM), in our case recombinant alpha-synuclein and tau46 fibrils. This assay is suitable for a screening of non-radioactive ligands.

[3] = Experiment B, read-out: Ki (nM) alpha-synuclein (sonicated fibrils)

Row | Ki [1] [nM] | Kd (aggregated Abeta) [nM] | Kd (aggregated tau46) [nM] | Ki ([2]; Experiment A, read-out: Ki (nM) alpha-synuclein (fibrils)) | Ki [2, 3] [nM] | SMILES
1 | 0.1 | > 100 | > 5 |  |  | CN(C)c1ccc(-c2cc(-c3ccnc(Br)c3)[nH]n2)cc1 [Compound 1, 4-[3-(4-dimethylamino-phenyl)-1H-pyrazol-5-yl]-2-bromopyridine]
2 | 3.4 |  |  | 47 nM and 42 nM | 9 | Fc1cc(-c2cc(-c3ccc4c(c3)OCO4)n[nH]2)ccn1 [Compound 12, 4-[3-(1,3-benzodioxol-5-yl)-1H-pyrazol-5-yl]-2-fluoropyridine]
3 |  | > 100 | > 15 |  | < 2 | CNc1ccc(-c2cc(-c3ccnc(Br)c3)[nH]n2)cc1 [Compound 2, 4-[5-(2-bromopyridin-4-yl)-1H-pyrazol-3-yl]-N-methylaniline]
